From PubChem BioAssay (NCI) come the findings set out here.

Common to all, as to assay: NCI-60 cell line screen, 48 h
The subject of assay [1] is HCT-116 colon.
The subject of assay [2] is A549 NSCLC.
The subject of assay [3] is ACHN renal.
Assay [4] has as its system SK-OV-3 ovarian.
Assay [5] has as its system TK-10 renal.
In assay [6] the test system is CCRF-CEM leukemia.
Assay [7] relates to 786-0 renal.
In assay [8] the test system is SN12C renal.
Assay [9] relates to PC-3 prostate.
Assay [10] relates to SW-620 colon.

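A five-concentration, 48-hour dose response in 96-well plates underlies each endpoint, interpolated linearly between surrounding concentrations. Here, GI50 denotes the concentration required for 50% inhibition of growth. At the TGI there is no net growth.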

With `Cn1c(COC(=O)NCCN2CCOCC2)nc2c(N3CCOCC3)nc(-c3ccccc3)nc21`, the GI50 is 0.397 µM in assay [1]; 1.39 µM in assay [2]; 0.936 µM in [3]; 4.79 µM in [4]; 1.48 µM in [5]; 0.306 µM in [6]. In addition, the GI50 is 0.843 µM in assay [7], 1.03 µM in assay [8], 1.33 µM in [9] and 0.444 µM in [10]. The TGI in assay [1] came out at 1.7 µM; in [2], 3.73 µM; in assay [3] it was 2.23 µM; in [4], 16.1 µM; in assay [5] it was 2.88 µM; in [6] it was 2.17 µM. The TGI in assay [7] stood at 2.23 µM; in [8] it was 2.6 µM; in assay [9], 3 µM; in assay [10], 1.78 µM.
With `CCNC(=O)Oc1ccc(/C(=C(\C)c2ccc(Cl)cc2)c2ccc(OCCN3CCCCC3)cc2)cc1`, the GI50 in assay [1] is 1.69 µM; in assay [2], 8.47 µM; in [3], 4.78 µM; in assay [4], 8.52 µM; in assay [5], 19.5 µM; in assay [6] it was 3.26 µM. For the same compound, the GI50 in assay [7] is 1.79 µM; in assay [8], 5.95 µM; in assay [9], 3.38 µM; in [10] it was 2.2 µM. Further, the TGI in [1] came to 3.22 µM; in assay [2], 22.4 µM; in [3], 16.7 µM; in assay [4], 21.3 µM; in assay [5] it was 34.6 µM; in assay [6] it was 11.8 µM. The TGI in [7] was 3.43 µM; in assay [8], 19.2 µM; in [9], 11.3 µM; in assay [10], 4.97 µM.
For `CCCCCCN(CCCCCC)CC(O)c1cccc2ccc(Cl)cc12` (stereo not given), the GI50 was 3.09 µM in assay [1]; 12.2 µM in assay [2]; 5.89 µM in assay [3]; 11.3 µM in assay [4]; 12.4 µM in assay [5]; 11.4 µM in assay [6]. In addition, the GI50 was 10.9 µM in assay [7], 10.7 µM in [8], 9.59 µM in assay [9] and 3.82 µM in [10]. For the same compound, the TGI was 14.2 µM in assay [1]; 26.4 µM in assay [2]; 18.8 µM in [3]; 23.4 µM in assay [4]; 25.4 µM in assay [5]; 31.7 µM in assay [6]. The TGI is 23.7 µM in [7], 23.6 µM in [8], 25 µM in [9] and 15 µM in [10].
For the compound `COc1cc2c(cc1OC)[C@H]1C(=O)c3cc4c(cc3[C@H]1N(C)C2=O)OCO4`, the TGI in [1] was greater than 100 µM; in assay [2] it was greater than 100 µM; in [3], greater than 100 µM; in assay [4], greater than 100 µM; in [5] it was greater than 100 µM; in [6] it was 17 µM. In addition, the TGI in [7] was greater than 45.2 µM; in assay [8], greater than 100 µM; in assay [9] it was greater than 100 µM; in assay [10], greater than 100 µM.
On to `COc1ncnc2c(-c3ccco3)cn(COCc3ccccc3)c12`, for which the GI50 is 3.76 µM in assay [1]; greater than 50 µM in assay [2]; greater than 50 µM in assay [3]; greater than 50 µM in assay [4]; 17.8 µM in [5]; greater than 50 µM in [6]. Moreover, the GI50 in assay [7] is 17.7 µM; in [8], greater than 50 µM; in assay [9] it was 3.5 µM; in assay [10], greater than 50 µM. In addition, the TGI in assay [1], in assay [2], in assay [3], in [4], in assay [5] and in assay [6] was greater than 50 µM throughout. The TGI in assay [7], in [8], in assay [9] and in [10] was greater than 50 µM in each case.
For the compound `CCCCCCN1C(=O)CN=C1Nc1ccc2cc3ccc(NC4=NCC(=O)N4CCCCCC)cc3nc2c1`, the GI50 in [1] was 1.19 µM; in assay [2], 2.03 µM; in [3], 1.76 µM; in assay [4], 11.6 µM; in [5], 1.56 µM; in [6], 2.49 µM. For the same compound, the GI50 in [7] is 1.56 µM; in [8], 1.75 µM; in assay [9], 2.54 µM; in assay [10], 1.84 µM. Besides, the TGI was 2.48 µM in [1]; 3.96 µM in [2]; 3.42 µM in [3]; 28.9 µM in [4]; 3.63 µM in assay [5]; 6.79 µM in [6]. The TGI in assay [7] stood at 2.95 µM; in assay [8] it was 3.45 µM; in assay [9], 9 µM; in [10] it was 3.7 µM.
With `Nc1ncnc2c1ncn2Cc1ccc(C23CC4CC(CC(C4)C2)C3)c(O)c1`, the GI50 in assay [1] was 8.91 µM; in assay [2], 6.52 µM; in [3] it was 15.6 µM; in assay [4], 36.3 µM; in [5] it was 7.24 µM; in assay [6], 3.97 µM. The GI50 is 25.6 µM in assay [7], 36.9 µM in assay [8], 8.36 µM in [9] and 48.7 µM in [10]. Moreover, the TGI in [1] is greater than 100 µM; in [2], 77.4 µM; in [3], greater than 100 µM; in assay [4], greater than 100 µM; in assay [5], 50.2 µM; in assay [6], greater than 100 µM. Also, the TGI is greater than 100 µM in assay [7], greater than 100 µM in assay [8], 96.3 µM in [9] and greater than 100 µM in [10].
